# Values joined by “and” are separate entries in the source; they are usually repeats but may differ in a detail not shown here. Equal entries are not always repeated.
# Key:
# [1] = tested on: osteoprogenitor cells cloned from bone marrow stroma; conditions: Cui et al. 1996; cited from earlier work
# chickens = conditions: Cui et al. 1996; cited from earlier work
# rabbits = conditions: Wang et al. 1995; cited from earlier work
# [2] = tested on: serum response element (SRE)-luciferase reporter gene / CRE-luciferase reporter gene; assay: negative control OBSRE (SRE-luciferase) and/or glucagon (CRE-luciferase) assays; type: cell-based, murine
# Description: In the negative control OBSRE assay, a murine osteoblast cell line, such as CCC-4 expressing a serum response element (SRE)-luciferase reporter gene is used (see WO96/07733). In the negative control glucagon assay, a glucagon receptor-positive BHK cell expressing a CRE-luciferase reporter gene is used (see U.S. Pat. No. 5,698,672).
# [3] = tested on: ovariectomized Sprague-Dawley rats; assay: Acute OVX (prevention model) oral dosing; type: in vivo, rat
# Protocol: Lead compounds can also be tested in acute ovariectomized animals (prevention model) using an in vivo dosing assay. Such assays may also include an estrogen-treated group as a control. An exemplary subcutaneous dosing assay is performed as follows:
# In a typical study, 80 three-month-old female Sprague-Dawley rats are weight-matched and divided into eight groups, with ten animals in each group. This includes a baseline control group of animals sacrificed at the initiation of the study; three control groups (sham ovariectomized (sham OVX)+vehicle only; ovariectomized (OVX)+vehicle only; PBS-treated OVX); and a control OVX group that is administered a compound known to promote bone growth. Three dosage levels of the compound to be tested are administered to the remaining three groups of OVX animals.
# Since ovariectomy (OVX) induces hyperphagia, all OVX animals are pair-fed with sham OVX animals throughout the 35 day study. Briefly, test compound, positive control compound, PBS, or vehicle alone is administered orally or subcutaneously once per day for 35 days. Alternatively, test compound can be formulated in implantable pellets that are implanted for 35 days, or may be administered orally, such as by gastric gavage. All animals, including sham OVX/vehicle and OVX/vehicle groups, are injected intraperitoneally with calcein nine days and two days before sacrifice (two injections of calcein administered each designated day, to ensure proper labeling of newly formed bone). Weekly body weights are determined. At the end of the 35-day cycle, the animals' blood and tissues are processed as described above.
# (§1) Lovastatin and simvastatin were analyzed in vivo using an acute OVX (prevention model) and/or chronic (treatment model) OVX model system, as described above under “Additional In Vivo Assays”.
# Lovastatin was examined in an acute OVX study. Briefly, 59-0326 was orally administered (35, 7, or 1.4 mg/kg/day; once per day for 35 days) immediately following ovariectomy. At the end of the study, the animals' blood and tissues samples were processed, and the following data were obtained.
# Similarly, lovastatin was orally administered (0.1, 1, 5, 10, 20 or 40 mg/kg/day; once per day for 35 days) immediately following ovariectomy. Two individuals histomorphometrically analyzed samples removed from animals that received the 10 mg/kg/day dose. These analyses indicated an increase in trabecular bone volume of 38% (not significant) or 90% (p<0.02) in the proximal tibia. The bone formation rate in the proximal tibia was determined to have increased 74% (p=0.004) in animals that received a 10 mg/kg/day dose or 37% (p<0.008) in animals that received a 1 mg/kg/day dose. In samples from animals that received the 1 mg/kg/day dose, mineral apposition rate in the proximal tibia was increased 22%.
# ovariectomized rats = assay: Chronic OVX (treatment model) oral dosing; type: in vivo, rat; conditions: once per day for 10 weeks, from 6 weeks post-ovariectomy, not significant
# Protocol: Lead compounds may also be tested in chronic OVX animals (treatment model). An exemplary protocol for treatment of established bone loss in ovariectomized animals that can be used to assess efficacy of anabolic agents may be performed as follows. Briefly, 80 to 100 six month old female, Sprague-Dawley rats are subjected to sham surgery (sham OVX) or ovariectomy (OVX) at time 0, and 10 rats are sacrificed to serve as baseline controls. Body weights are recorded weekly during the experiment. After approximately 6 weeks (42 days) or more of bone depletion, 10 sham OVX and 10 OVX rats are randomly selected for sacrifice as depletion period controls. Of the remaining animals, 10 sham OVX and 10 OVX rats are used as placebo-treated controls. The remaining OVX animals are treated with 3 to 5 doses of test drug for a period of 5 weeks (35 days). As a positive control, a group of OVX rats can be treated with an agent such as PTH, a known anabolic agent in this model (Kimmel, et al., Endocrinology (1993) 132:1577-84). […]
# as §1
# Simvastatin was also examined in a chronic OVX study. […] At the 50 mg/kg/day dose, an 86% (not significant) increase in the bone formation rate in the proximal tibia was measured.
# [4] = 7 mg/kg/day oral, once per day for 35 days
SMILES,triglyceride vesicles accumulated on dexamethasone treatment [1],bone loss in the femoral head as a result of dexamethasone treatment (chickens),effect on bone formation in the absence of steroid treatment (rabbits),inhibition of the bone resorption resulting from steroid administration (rabbits),dose-dependent stimulatory effect in control assays [2],"increase in trabecular bone volume in the proximal tibia ([3]; 7 mg/kg/day oral, 35 days, histomorphometric analysis by two individuals (p<0.001; p=0.0503))","increase in trabecular bone volume in the distal femur ([3]; 7 mg/kg/day oral, 35 days, not significant) [%]","increase in bone formation rate in the distal femur ([3]; 7 mg/kg/day oral, 35 days, p=0.052) [%]","increase in cortical thickness (pQCT) [3, 4] [%]","increase in trabecular density (pQCT) [3, 4] [%]","increase in mineral apposition rate in the proximal tibia ([3]; second study, 1 mg/kg/day oral, 35 days) [%]","increase in bone formation rate in the proximal tibia ([3]; second study, 1 mg/kg/day oral, 35 days, p<0.008) [%]","increase in bone formation rate in the proximal tibia ([3]; second study, 10 mg/kg/day oral, 35 days, p=0.004) [%]","increase in trabecular bone volume in the proximal tibia ([3]; second study, 10 mg/kg/day oral, 35 days, two individuals (not significant; p<0.02), 10 mg/kg/day)",increase in the bone formation rate in the proximal tibia (ovariectomized rats; 10 mg/kg/day oral) [%],increase in the bone formation rate in the proximal tibia (ovariectomized rats; 50 mg/kg/day oral) [%]
"CC[C@H](C)C(=O)O[C@H]1C[C@@H](C)C=C2C=C[C@H](C)[C@H](CC[C@@H]3C[C@@H](O)CC(=O)O3)[C@H]21 [Lovastatin, lovastatin]",diminished triglyceride vesicles,improved,no effect on bone formation,able to inhibit the bone resorption,not in control assays,110% and 25%,23,40,14,20,22,37,74,38% and 90%,,
"CCC(C)(C)C(=O)O[C@H]1C[C@@H](C)C=C2C=C[C@H](C)[C@H](CC[C@@H]3C[C@@H](O)CC(=O)O3)[C@H]21 [Simvastatin, simvastatin]",,,,,,,,,,,,,,,114,86

# From US6642216B2, “Isoprenoid pathway inhibitors for stimulating bone growth” (ZymoGenetics Corporation, priority 1996, dated 2003)
